Laboratory results reported in PubChem BioAssay (NCI).
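A five-concentration, 48-hour dose response in 96-well plates underlies each endpoint, interpolated linearly between surrounding concentrations. Here, GI50 denotes the concentration required for 50% inhibition of growth. Definition used: TGI = concentration required for complete inhibition of growth.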

Assays:
Experiment in all cases: growth of human tumour cells (NCI), 48 h
RPMI-8226 leukemia = system: RPMI-8226 leukemia
OVCAR-3 ovarian = system: OVCAR-3 ovarian
UACC-257 melanoma = system: UACC-257 melanoma
NCI-H522 lung = system: NCI-H522 lung
HOP-62 NSCLC = system: HOP-62 NSCLC
LOX IMVI melanoma = system: LOX IMVI melanoma
NCI-H460 lung = system: NCI-H460 lung
TK-10 renal = system: TK-10 renal

SMILES | TGI (RPMI-8226 leukemia) [µM] | TGI (OVCAR-3 ovarian) [µM] | TGI (UACC-257 melanoma) [µM] | TGI (NCI-H522 lung) [µM] | TGI (HOP-62 NSCLC) [µM] | TGI (LOX IMVI melanoma) [µM] | TGI (NCI-H460 lung) [µM] | TGI (TK-10 renal) [µM] | GI50 (RPMI-8226 leukemia) [nM] | GI50 (OVCAR-3 ovarian) [nM] | GI50 (UACC-257 melanoma) [nM] | GI50 (NCI-H522 lung) [µM] | GI50 (HOP-62 NSCLC) [µM] | GI50 (LOX IMVI melanoma) [µM] | GI50 (NCI-H460 lung) [nM] | GI50 (TK-10 renal) [µM]
COC1OC(CBr)C(OC(c2ccccc2)(c2ccccc2)c2ccccc2)C(OC(c2ccccc2)(c2ccccc2)c2ccccc2)C1OC(c1ccccc1)(c1ccccc1)c1ccccc1 (stereo unspecified) | > 100 | 28.6 | > 100 | 40.8 | > 100 | > 100 | > 100 | > 100 |  |  |  |  |  |  |  | 
CN(C)c1ccc2cc(-c3cc4c(oc3=O)-c3ccccc3OC4O)c(=O)oc2c1 (stereo unspecified) | 4.71 | > 25 | 10.6 | 10.2 | 11.6 | 7.3 | 14.3 | 19.8 | 439 | 5900 | 2790 | 3.6 | 3.88 | 3.52 | 4140 | 6.63
Cc1cccc2c1NC(=O)[C@@]21[C@H](C(=O)c2ccccc2)[C@]2(C(=O)Nc3ccccc32)[C@H]2CCCN21 | > 100 | > 100 | > 100 | > 100 | > 100 | > 100 | > 100 | > 100 | > 100000 | 15500 | > 100000 | 29.2 | 26.7 | 34.5 | 24600 | 36.8
CCCCNC(=O)Oc1ccc2c(=O)c3sc4c(=O)c5ccccc5c(=O)c4c3c(=O)c2c1 | 4.42 | 0.977 | 0.7 | 1.64 | 0.277 | 1.75 | 0.395 | 3.78 | 1160 | 299 | 237 | 0.379 | 0.144 | 0.327 | 195 | 2.19
COC1CC2C=CC3C4OC2(/C(C)=C/C(C)C(C(C)O)OC1=O)C3C(O)C(C)C4OC(=O)c1ccc[nH]1 (stereo unspecified) | > 100 | > 100 | > 100 | > 100 | > 100 | > 100 | > 100 | > 100 |  |  |  |  |  |  |  | 
COc1cc2c(=O)n(CCCn3ccnc3)c3c4cc5c(cc4ccc3c2cc1OC)OCO5 |  | > 100 |  | 17.1 | 5.37 |  | > 100 | > 100 |  | 344 |  | 0.324 | 0.305 |  | 293 | 36
COc1ccccc1N1CCN(C(=O)c2ccc(NS(=O)(=O)c3cccc4cccnc34)cc2)CC1 | > 100 | > 100 | > 100 | > 88.5 | > 100 | > 100 | > 100 | > 100 | > 100000 | > 100000 | > 100000 | 22.2 | > 49.7 | > 100 | > 100000 | > 64.1
O=c1ccccc(-c2ccc(-c3ccco3)cc2)c1O | > 100 | 26.3 | 18.8 | 45.8 | 12.9 | 11.2 | 10.8 | 82.9 | 756 | 415 | 1600 | 4.07 | 0.694 | 0.472 | 408 | 0.819
Cc1ccc2c(N/N=C\c3ccco3)cc(C)nc2n1 | 7.06 | 7.49 | 8.72 | 9.84 | 24.4 | 14 | 11.8 |  | 2480 | 2810 | 2790 | 2.92 | 10 | 3.76 | 3240 | 
CN(C)Cc1cccc(CN(C)C)[c]1[Sn]([Br])([c]1ccccc1)[c]1ccccc1 | 6.86 | 24.3 | 53.7 |  | 39.5 | 20.3 | 65.9 | 46.9 | 2290 | 11300 | 16000 |  | 17.2 | 6.25 | 13400 | 17.2
O=S(=O)(NCCCNc1cc(-c2cn(-c3ccccc3)nc2-c2cccc(O)c2)ccn1)c1cccc2ccccc12 | 7.89 | > 100 |  | 5.66 | 12.9 | 3.29 | 10.4 | 44.9 | 1850 | 5620 |  | 2.32 | 2.45 | 1.56 | 2890 | 6.11
O=C1c2cccc3cc([N+](=O)[O-])cc(c23)C(=O)N1CCN1CCCC1 | 1.27 | 5.71 |  | 2.88 | 1.7 | 3.27 | 0.902 | 2.52 | 203 | 1740 |  | 0.495 | 0.312 | 0.297 | 161 | 0.697
COc1ccc(-c2csc(NC(=O)N3CCN(c4cc5c(cc4F)c(=O)c(C(=O)O)cn5C4CC4)CC3)n2)cc1 |  | 17.9 |  |  | 32.6 |  | > 100 | 37 |  | 890 |  |  | 3.02 |  | 1290 | 6.93
CC(=O)Nc1ccc2oc(=O)c3ccccc3c2c1 | > 100 | > 100 | > 100 | > 100 | > 100 | > 100 | > 100 |  |  |  |  |  |  |  |  | 
O=C1C(Cl)=C(Nc2cccc(O)c2)C(=O)N1c1cccc(Cl)c1 | 34.3 | 64.1 |  | 36.3 | > 100 | 51.1 | > 100 | > 100 | 12800 | 22300 |  | 16.6 | 52.7 | 22.4 | 48500 | > 100
